Data: the supplement of paper PMC10307832

What was measured:
Experiment in all cases: relative viability (nuclei count vs DMSO), 5 days (fraction); higher = more cells survive
[1] = compound: CCC1=CN=CN=C1N2CCN(CC2)CC3=NC4=C(N3)C=C(C=C4)C(F)(F)F + CC(=O)c1c(C)c2cnc(Nc3ccc(N4CCNCC4)cn3)nc2n(C2CCCC2)c1=O [Palbociclib] (partner 0.5 µM)
Summary of the method: (§1)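 For relative viability, nuclei counts in treated wells were divided by those in vehicle wells. Lung cancer cell lines had been pin-tool dosed in 1536-well plates the day after seeding and cultured for 5 days, then fixed and stained in one step (final 0.05% Triton X-100, 1% formaldehyde, 1 ug/ml Hoechst) and imaged at 4×. Doses were one drug alone or a fixed anchor-drug dose plus five library-drug doses (not always all listed) in √10 steps, and values are duplicate-plate medians.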

[2] = compound: CCn1c(-c2nonc2N)nc2cnc(Oc3cccc(NC(=O)c4ccc(OCCN5CCOCC5)cc4)c3)cc21 + N=C(N)NC(=N)NCCc1ccccc1 [Phenformin] (partner 250 µM)
Summary of the method: as §1

[3] = compound: CCn1c(-c2nonc2N)nc2cnc(Oc3cccc(NC(=O)c4ccc(OCCN5CCOCC5)cc4)c3)cc21 + O=C(c1cc(Cc2n[nH]c(=O)c3ccccc23)ccc1F)N1CCN(C(=O)C2CC2)CC1 [Olaparib] (partner 8 µM)
Summary of the method: as §1

Mirin + Phenformin = compound: N=C1NC(=O)/C(=C/c2ccc(O)cc2)S1 [Mirin] + N=C(N)NC(=N)NCCc1ccccc1 [Phenformin] (partner 250 µM)
Summary of the method: as §1

Cell Line | relative viability ([1]; first compound 0.04 µM) | relative viability ([1]; first compound 0.1265 µM) | relative viability ([1]; first compound 0.4 µM) | relative viability ([1]; first compound 1.265 µM) | relative viability ([1]; first compound 4 µM) | relative viability ([2]; first compound 0.04 µM) | relative viability ([2]; first compound 0.1265 µM) | relative viability ([2]; first compound 0.4 µM) | relative viability ([2]; first compound 1.265 µM) | relative viability ([2]; first compound 4 µM) | relative viability ([3]; first compound 0.04 µM) | relative viability ([3]; first compound 0.1265 µM) | relative viability ([3]; first compound 0.4 µM) | relative viability ([3]; first compound 1.265 µM) | relative viability ([3]; first compound 4 µM) | relative viability (Mirin + Phenformin; first compound 0.25 µM) | relative viability (Mirin + Phenformin; first compound 0.7906 µM) | relative viability (Mirin + Phenformin; first compound 2.5 µM) | relative viability (Mirin + Phenformin; first compound 7.906 µM) | relative viability (Mirin + Phenformin; first compound 25 µM)
NCI-H2170 | 0.397 | 0.402 | 0.375 | 0.385 | 0.386 | 0.468 | 0.417 | 0.388 | 0.355 | 0.315 | 0.629 | 0.661 | 0.629 | 0.549 | 0.415 | 0.449 | 0.439 | 0.426 | 0.377 | 0.413
HCC-366 | 0.319 | 0.328 | 0.321 | 0.34 | 0.383 | 0.694 | 0.665 | 0.412 | 0.0542 | 0.0311 | 0.334 | 0.303 | 0.416 | 0.0675 | 0.0475 | 0.627 |  | 0.718 | 0.601 | 0.583
NCI-H2405 | 0.578 | 0.53 | 0.513 |  | 0.594 | 0.379 | 0.236 | 0.0695 | 0.124 | 0.13 | 0.883 | 0.57 | 0.341 | 0.258 | 0.287 | 0.395 | 0.392 | 0.392 | 0.346 | 0.37
COR-L 105 | 0.416 | 0.444 | 0.371 | 0.363 | 0.428 | 0.523 | 0.416 | 0.389 | 0.31 | 0.271 | 0.631 | 0.617 | 0.699 | 0.554 | 0.457 | 0.551 | 0.495 | 0.479 | 0.583 | 0.462
201T | 0.331 | 0.348 | 0.367 | 0.375 | 0.344 | 0.471 | 0.44 | 0.342 | 0.368 | 0.396 | 0.859 | 0.933 | 0.817 | 0.812 | 0.769 | 0.463 | 0.494 | 0.454 | 0.463 | 0.568
NCI-H2228 |  | 0.595 | 0.684 | 0.472 | 0.877 | 0.41 | 0.31 | 0.329 | 0.318 | 0.331 | 1.13 | 0.742 | 0.776 | 0.671 | 0.544 | 0.377 | 0.299 | 0.303 | 0.295 | 0.309
LC-2-ad | 0.471 | 0.48 | 0.501 | 0.466 | 0.472 | 0.679 | 0.563 | 0.397 | 0.362 | 0.524 | 0.753 | 0.677 | 0.716 | 0.438 | 0.334 | 0.624 | 0.498 | 0.589 | 0.47 | 0.416
NCI-H2085 | 0.371 | 0.398 | 0.473 | 0.488 | 0.442 | 0.787 | 0.676 | 0.596 | 0.551 | 0.559 | 0.832 | 0.693 | 0.632 | 0.573 | 0.559 | 0.804 | 0.756 | 0.749 | 0.655 | 0.654
NCI-H358 | 0.135 | 0.136 | 0.121 | 0.128 | 0.141 | 0.352 | 0.295 | 0.224 | 0.27 | 0.198 | 0.709 | 0.612 | 0.792 | 0.572 | 0.521 | 0.344 | 0.347 | 0.318 | 0.313 | 0.213
H3255 | 0.313 | 0.308 | 0.325 | 0.292 | 0.343 | 0.455 | 0.35 | 0.332 | 0.322 | 0.358 | 0.532 | 0.542 | 0.501 | 0.364 | 0.383 | 0.33 | 0.379 | 0.408 | 0.271 | 0.361
NCI-H23 | 0.496 | 0.584 | 0.541 | 0.42 | 0.531 | 0.879 | 0.798 | 0.662 | 0.61 | 0.532 | 0.33 | 0.3 | 0.359 | 0.253 | 0.177 | 0.817 |  | 0.747 | 0.753 | 0.862
CAL-12T | 0.558 | 0.409 | 0.601 | 0.288 | 0.556 | 0.686 | 0.596 | 0.48 | 0.418 | 0.388 | 0.825 | 0.795 | 0.73 | 0.635 | 0.539 | 0.627 |  | 0.665 | 0.591 | 0.657
A-427 | 0.451 | 0.489 | 0.499 | 0.479 | 0.475 | 0.471 | 0.377 | 0.227 | 0.167 | 0.114 | 0.704 | 0.685 | 0.601 | 0.198 | 0.264 | 0.311 |  | 0.363 | 0.266 | 0.348
HARA | 0.281 | 0.314 | 0.283 |  | 0.295 | 0.585 | 0.369 | 0.231 | 0.0981 | 0.074 | 0.607 | 0.965 | 0.654 | 0.294 | 0.139 | 0.536 |  | 0.467 | 0.475 | 0.36
NCI-H1793 | 0.248 | 0.294 | 0.29 | 0.269 | 0.279 | 0.459 | 0.464 | 0.253 | 0.212 | 0.168 | 0.824 | 0.994 | 0.756 | 0.52 | 0.363 | 0.447 |  | 0.362 | 0.287 | 0.374
NCI-H1623 |  |  |  |  |  | 0.629 | 0.594 | 0.499 | 0.536 | 0.605 |  |  |  |  |  | 0.562 | 0.383 | 0.577 | 0.459 | 0.48
NCI-H2009 | 0.195 | 0.238 | 0.184 | 0.15 | 0.0584 | 0.493 | 0.357 | 0.284 | 0.192 | 0.224 | 0.605 | 0.566 | 0.549 | 0.486 | 0.334 | 0.485 | 0.573 | 0.522 | 0.411 | 0.526
